According to ChEMBL document CHEMBL3885861, “Open TG-GATES”:

Organism: Rattus norvegicus
Experiment: Open TG-GATES - Regimen: Daily Repeat
Assay type: toxicity, organism-based, Sprague-Dawley
Design: regimen Daily Repeat, gender Male, age 6 weeks
Conditions: in vivo, po, route gavage; for Bas / Eos / Fbg / Ht / Lym / MCH / MCHC / MCV / Mono / Neu / PT / Plat / RBC / Ret / WBC / APTT: tissue Blood; for KIDNEY_L / KIDNEY_R / KIDNEY_TOTAL: tissue Kidney; for ALP / ALT / AST / CRE / Ca / Cl / DBIL / GLC / IP / K / LDH / RALB / TBIL / TC / TG / TP / gamma-GTP: tissue Plasma
[1] = 0 mg/kg, 72 h, dose level Control, time 3 day
[2] = 0 mg/kg, […], dose level Control, time 7 day
[3] = 0 mg/kg, […], dose level Control, time 14 day
[4] = 0 mg/kg, […], dose level Control, time 28 day
[5] = 10 mg/kg, 72 h, dose level Low, time 3 day
[6] = 10 mg/kg, […], dose level Low, time 7 day
[7] = 10 mg/kg, […], dose level Low, time 14 day
[8] = 10 mg/kg, […], dose level Low, time 28 day

**Q.** What does the source list for `Cn1c(=O)c2c(ncn2C)n(C)c1=O` [CAFFEINE]?
**A.** TERMINAL_BW [1]: 229.3 g; Bas [1]: 0%; Eos [1]: 0.6%; Fbg [1]: 311 mg/dL; Ht [1]: 39.9%; Lym [1]: 81.2%; MCH [1]: 21.1 pg; MCHC [1]: 33.1%; MCV [1]: 63.7 fL; Mono [1]: 2%; Neu [1]: 15.6%; PT [1]: 15.7 s; Plat [1]: 113.5 x10_4/uL; RBC [1]: 627 x10_4/ul; Ret [1]: 6.4%; WBC [1]: 79.7 x10_2/uL; KIDNEY_L [1]: 1 g; KIDNEY_R [1]: 1 g; KIDNEY_TOTAL [1]: 2 g; ALP [1]: 1435.4 IU/L; ALT [1]: 51.2 IU/L; AST [1]: 77 IU/L; CRE [1]: 0.2 mg/dL; Ca [1]: 10.9 mg/dL; Cl [1]: 108.2 meq/L; DBIL [1]: 0 mg/dL; GLC [1]: 187.2 mg/dL; IP [1]: 7.9 mg/dL; K [1]: 4.1 meq/L; LDH [1]: 159 IU/L; RALB [1]: 3 g/dL; TBIL [1]: 0.004 mg/dL; TC [1]: 69.2 mg/dL; TG [1]: 83.4 mg/dL; TP [1]: 5.6 g/dL; gamma-GTP [1]: 1.4 IU/L; TERMINAL_BW [2]: 259.6 g; TERMINAL_BW [3]: 312 g; TERMINAL_BW [4]: 388.1 g; APTT [2]: 22.5 s; Bas [2]: 0%; Eos [2]: 0.8%; Fbg [2]: 342.6 mg/dL; Ht [2]: 40.7%; Lym [2]: 79%; MCH [2]: 21.2 pg; MCHC [2]: 33.6%; MCV [2]: 63.2 fL; Mono [2]: 1.8%; Neu [2]: 17.4%; PT [2]: 15.4 s; Plat [2]: 116.2 x10_4/uL; RBC [2]: 644.8 x10_4/ul; Ret [2]: 6%; WBC [2]: 120.4 x10_2/uL; APTT [3]: 22.6 s; Bas [3]: 0%; Eos [3]: 1%; Fbg [3]: 311.4 mg/dL; Ht [3]: 41.1%; Lym [3]: 84.2%; MCHC [3]: 34.2%; MCV [3]: 59.8 fL; Mono [3]: 2.4%; Neu [3]: 11.4%; PT [3]: 15.5 s; Plat [3]: 117.4 x10_4/uL; RBC [3]: 688 x10_4/ul; Ret [3]: 4.3%; WBC [3]: 117.6 x10_2/uL; Bas [4]: 0%; Eos [4]: 1.2%; Fbg [4]: 317 mg/dL; Ht [4]: 43.6%; Lym [4]: 81%; MCH [4]: 19.4 pg; MCHC [4]: 34.6%; MCV [4]: 56.1 fL; Mono [4]: 1.6%; PT [4]: 15.7 s; Plat [4]: 102.1 x10_4/uL; RBC [4]: 778.2 x10_4/ul; Ret [4]: 2.6%; WBC [4]: 103.3 x10_2/uL; KIDNEY_L [2]: 1.1 g; KIDNEY_R [2]: 1.1 g; KIDNEY_TOTAL [2]: 2.3 g; KIDNEY_L [3]: 1.2 g; KIDNEY_R [3]: 1.2 g; KIDNEY_TOTAL [3]: 2.4 g; KIDNEY_L [4]: 1.4 g; KIDNEY_R [4]: 1.5 g; KIDNEY_TOTAL [4]: 2.9 g; ALP [2]: 1993.2 IU/L; ALT [2]: 46 IU/L; AST [2]: 70.6 IU/L; CRE [2]: 0.1 mg/dL; Ca [2]: 10.5 mg/dL; Cl [2]: 106 meq/L; DBIL [2]: 0 mg/dL; GLC [2]: 197.8 mg/dL; IP [2]: 7.7 mg/dL; K [2]: 4.7 meq/L; LDH [2]: 185.6 IU/L; RALB [2]: 3 g/dL; TBIL [2]: 0 mg/dL; TC [2]: 76.6 mg/dL; TG [2]: 118.6 mg/dL; TP [2]: 5.5 g/dL; gamma-GTP [2]: 1.8 IU/L; ALP [3]: 1572.4 IU/L; ALT [3]: 40.8 IU/L; AST [3]: 68.4 IU/L; CRE [3]: 0.2 mg/dL; Ca [3]: 10.5 mg/dL; Cl [3]: 104.6 meq/L; DBIL [3]: 0 mg/dL; GLC [3]: 216 mg/dL; IP [3]: 7.5 mg/dL; K [3]: 4.5 meq/L; LDH [3]: 181 IU/L; RALB [3]: 3 g/dL; TBIL [3]: 0 mg/dL; TG [3]: 150.2 mg/dL; TP [3]: 5.8 g/dL; gamma-GTP [3]: 2.4 IU/L; ALP [4]: 1038 IU/L; ALT [4]: 43.6 IU/L; AST [4]: 66.6 IU/L; CRE [4]: 0.2 mg/dL; Ca [4]: 10.4 mg/dL; Cl [4]: 105 meq/L; DBIL [4]: 0 mg/dL; GLC [4]: 197.4 mg/dL; IP [4]: 6.6 mg/dL; K [4]: 4.1 meq/L; LDH [4]: 146 IU/L; RALB [4]: 3.1 g/dL; TBIL [4]: 0.004 mg/dL; TC [4]: 71 mg/dL; TG [4]: 138.8 mg/dL; TP [4]: 6.1 g/dL; gamma-GTP [4]: 2.2 IU/L; TERMINAL_BW [5]: 226.8 g; APTT [5]: 21.4 s; Bas [5]: 0%; Eos [5]: 1%; Fbg [5]: 307.2 mg/dL; Ht [5]: 38.9%; Lym [5]: 80.2%; MCH [5]: 20.9 pg; MCHC [5]: 33.2%; MCV [5]: 62.9 fL; Mono [5]: 1.8%; Neu [5]: 16.4%; PT [5]: 15.5 s; Plat [5]: 118.8 x10_4/uL; RBC [5]: 618.6 x10_4/ul; Ret [5]: 5.7%; WBC [5]: 73.5 x10_2/uL; KIDNEY_L [5]: 1 g; KIDNEY_R [5]: 1 g; KIDNEY_TOTAL [5]: 2 g; ALP [5]: 1442.2 IU/L; ALT [5]: 43.8 IU/L; AST [5]: 70.8 IU/L; CRE [5]: 0.2 mg/dL; Ca [5]: 10.8 mg/dL; Cl [5]: 107.6 meq/L; DBIL [5]: 0 mg/dL; GLC [5]: 183.2 mg/dL; IP [5]: 7.5 mg/dL; K [5]: 4.2 meq/L; LDH [5]: 154.6 IU/L; RALB [5]: 3 g/dL; TBIL [5]: 0.004 mg/dL; TC [5]: 75.8 mg/dL; TG [5]: 87.8 mg/dL; TP [5]: 5.6 g/dL; gamma-GTP [5]: 1.2 IU/L; TERMINAL_BW [6]: 259.9 g; TERMINAL_BW [7]: 300.9 g; TERMINAL_BW [8]: 396.8 g; APTT [6]: 22.8 s; Bas [6]: 0%; Eos [6]: 1%; Fbg [6]: 316 mg/dL; Ht [6]: 40.6%; Lym [6]: 79%; MCH [6]: 20.9 pg; MCHC [6]: 33.3%; MCV [6]: 62.7 fL; Mono [6]: 2%; Neu [6]: 16.8%; PT [6]: 15.3 s; Plat [6]: 112.2 x10_4/uL; RBC [6]: 648.4 x10_4/ul; Ret [6]: 6.1%; WBC [6]: 106.3 x10_2/uL; APTT [7]: 23.2 s; Bas [7]: 0%; Eos [7]: 0.8%; Fbg [7]: 306.2 mg/dL; Ht [7]: 41.1%; Lym [7]: 81.2%; MCH [7]: 20.1 pg; MCHC [7]: 34%; MCV [7]: 59.2 fL; Mono [7]: 1.4%; Neu [7]: 15.4%; PT [7]: 15.1 s; Plat [7]: 112.6 x10_4/uL; RBC [7]: 693.6 x10_4/ul; Ret [7]: 4.5%; WBC [7]: 105.4 x10_2/uL; APTT [8]: 25.8 s; Bas [8]: 0%; Eos [8]: 0.6%; Fbg [8]: 309.2 mg/dL; Ht [8]: 43.1%; Lym [8]: 84%; MCHC [8]: 34.5%; MCV [8]: 54.7 fL; Mono [8]: 1.6%; Plat [8]: 99.3 x10_4/uL; RBC [8]: 788.8 x10_4/ul; Ret [8]: 2.5%; WBC [8]: 105.2 x10_2/uL; KIDNEY_L [6]: 1.1 g; KIDNEY_R [6]: 1.1 g; KIDNEY_TOTAL [6]: 2.2 g; KIDNEY_L [7]: 1.2 g; KIDNEY_R [7]: 1.2 g; KIDNEY_TOTAL [7]: 2.5 g; KIDNEY_L [8]: 1.5 g; KIDNEY_R [8]: 1.5 g; KIDNEY_TOTAL [8]: 3 g; ALP [6]: 1552.6 IU/L; ALT [6]: 47.6 IU/L; AST [6]: 75.2 IU/L; CRE [6]: 0.2 mg/dL; Ca [6]: 10.5 mg/dL; Cl [6]: 106.4 meq/L; DBIL [6]: 0 mg/dL; GLC [6]: 192.8 mg/dL; IP [6]: 7.8 mg/dL; K [6]: 4.4 meq/L; LDH [6]: 179.4 IU/L; RALB [6]: 3 g/dL; TBIL [6]: 0.002 mg/dL; TC [6]: 73.4 mg/dL; TG [6]: 102.4 mg/dL; TP [6]: 5.5 g/dL; gamma-GTP [6]: 2.4 IU/L; ALP [7]: 1475.8 IU/L; AST [7]: 71.8 IU/L; CRE [7]: 0.2 mg/dL; Ca [7]: 10.6 mg/dL; Cl [7]: 105.8 meq/L; DBIL [7]: 0 mg/dL; GLC [7]: 194 mg/dL; IP [7]: 6.8 mg/dL; K [7]: 4.2 meq/L; LDH [7]: 160.2 IU/L; RALB [7]: 3 g/dL; TBIL [7]: 0.004 mg/dL; TC [7]: 68.4 mg/dL; TG [7]: 146.6 mg/dL; TP [7]: 5.8 g/dL; gamma-GTP [7]: 2.2 IU/L; ALP [8]: 1054 IU/L; ALT [8]: 43 IU/L; AST [8]: 66.2 IU/L; CRE [8]: 0.2 mg/dL; Ca [8]: 10.4 mg/dL; Cl [8]: 105.8 meq/L; DBIL [8]: 0 mg/dL; GLC [8]: 204.4 mg/dL; IP [8]: 6.7 mg/dL; K [8]: 4 meq/L; LDH [8]: 153 IU/L; RALB [8]: 3.2 g/dL; TBIL [8]: 0.004 mg/dL; TC [8]: 73.6 mg/dL; TG [8]: 147.6 mg/dL
